From patent EP3692978A1, “NOVEL METHOD” (DSM IP Assets B.V., priority 2019, dated 2020)
Read-outs that look alike come from different tables or passages of the source. Where a SMILES comes first, the peptide text is derived from it. [ ]: non-standard residue; d: D form. The star is where a group is joined. Bz = O=C(c1ccccc1)*; NPr2 = CCCN(CCC)*

Tested on: human hair follicles
Format: cell-based
Details: hair shaft elongation after 4 days versus vehicle (DMSO) control
Excerpt: Microdissection of human hair follicles: Human scalp skin samples containing mainly anagen VI hair follicles were obtained from elective face-lift plastic surgery. Informed consent was obtained. Hair follicles were truncated below the dermis, while the remaining hair bulb was separated from the dermal/subcutaneous tissue and placed in appropriate culture medium. Before the experiment, each hair follicle underwent a stringent selection, that is operated by controlling the hair shaft elongation following 18 hrs of organ culture, as well as the general organ morphology. Only the hair follicles that grew at least 0.19 ± 0.02 mm/18 hrs were used for the experiment.
Treatment: The hair growth inhibition of Bz-Gly-His-D-Phe-Arg-D-Trp-N(Pr)2 *2MSA in the concentrations as indicated in table 2 was assessed versus control, i.e. versus a treatment with the vehicle (i.e. DMSO) alone. Evaluation of hair growth inhibition: pictures of the hair follicles in culture were taken at baseline and after 4 days and the hair shaft elongation was measured to determine the hair growth. Table 2: Results

CCCN(CCC)C(=O)[C@@H](Cc1c[nH]c2ccccc12)NC(=O)[C@H](CCCNC(=N)N)NC(=O)[C@@H](Cc1ccccc1)NC(=O)[C@H](Cc1c[nH]cn1)NC(=O)CNC(=O)c1ccccc1 [Bz-Gly-His-D-Phe-Arg-D-Trp-N(Pr)2 *2MSA] (Bz-GH[dF]R[dW]-NPr2)
% hair growth inhibition (1 nM, p = 0.067 (paired t-test)): 12% | % hair growth inhibition (100 nM, p = 0.019 (paired t-test)): 29%
